Measurements published in patent publication US8420652B2, “Use of aryl piperazine derivatives in manufacturing medicants for treating pain” (NHWA Pharma Corporation, priority 2008, dated 2013).
Where two headings read alike, the source gives them in different places.

How the values were obtained:
Format in all cases: in vivo
KM female mice = experiment: Hot-plate test in mice; conditions: for ED50: Mus musculus, 1 h, read-out: ED50, analgesic activity in the hot-plate test
From the text: Hot-plate test is one of conventional physiological pain models. Mice lick hind paws, jump up and so on when they are subject to thermal stimulus. Analgesics that take effect on central nervous system can increase the thermo-pain threshold, prolong the latency of protective response.
KM female mice weighting 18-22 g were employed in the test. Primary screening was done before the test to remove the animals whose responses were too slow (>30 s) or too sensitive (<6 s). The mice passing the primary screening were divided into a negative control group, a morphine control group and a group of the compound of the invention. Each group of mice were respectively administered corresponding dose of medicine intragastrically or by intravenous injection, and 60 minutes later, a hot-plate test was done on those mice. The time of first licking hind paws and jumping up was recorded (the data over 60 s is recorded as 60) and compared with the latency of the animals in the control group. The analgesic activity of each dose was calculated and ED50 was calculated from the analgesic activity.

Sprague-Dawley (SD) rats [1] = experiment: Spared nerve injury (SNI) test; conditions: intragastrically on Day 12, 13, 14 after surgery, mechanical allodynia at 60 minutes after administration; for ED50: Rattus norvegicus, po, read-out: ED50, analgesic activity in the spared nerve injury (SNI) test
From the text: Neuropathic pain is also called for short as neuralgia, which is a common chronic pain. It is an abnormal pain condition caused by hurt or disease-induced trauma of peripheral or central nerve, and can not be cured effectively till now. Sciatic nerve branches selective injury model (spared nerve injury, SNI) is a neuralgia model established in 2000 (see Spared nerve injury: an animal model of persistent peripheral neuropathic pain, Pain, 2000 August; 87(2): 149-58). The model can produce […] robust mechanical allodynia, so it can simulate the clinic nerve pathologic pain relatively well.
Adult male Sprague-Dawley (SD) rats weighting 200-250 g (Experimental Animal Center of Xuzhou Medical College) were employed in the test after acclimation by feeding for 1 week. First, Sciatic nerve branches selective injury model (spared nerve injury, SNI) was replicated, The rats of successful modeling were administered intragastrically on Day 12, 13, 14 after surgery. The mechanical allodynia were measured at 60 minutes after administration every day (von Frey Cilia Apparatus, manufactured by Institute of Biology Bioengineering, Chinese Academy of Medical Science).

Kunming mice = experiment: Acetic acid-induced writhing test; conditions: for ED50: Mus musculus, read-out: ED50, analgesic activity in writhing test
Experimental: Kunming mice (18-22 g, male and female each half) were divided into a negative control group, an Aspirin control group, a morphine control group and a group of the compound of the invention. Each group of mice were respectively administered corresponding medicine (0.2 ml/10 g) intragastrically or subcutaneously, The mice of the negative control group were administered, the same volume vehicle. After 60 minutes (intragastrically) or 30 minutes (subcutaneously), each group of mice were administered 0.6% acetic acid solution (0.4 ml) by intraperitoneal injecting, and then writhing times in 15 minutes were observed and recorded immediately. Writhing inhibition rate in mice was used as the pharmacodynamic index of analgesic activity. Writhing inhibition rate(%)=(writhing times of negative control group−writhing times of medicine group)/Writhing times of negative control group×100%
ED50 values were calculated according to the result.

Sprague-Dawley (SD) rats [2] = experiment: Bee venom test; conditions: for ED50: Rattus norvegicus, central, 5 min, read-out: ED50, analgesic activity in the bee venom test; for ED50, analgesic activity in the bee venom test: intrathecally, bee venom 5 minutes after administration
Experimental: Adult male Sprague-Dawley (SD) rats weighting 200-250 g were used in the test after acclimation by feeding for 1 week. First, tubes were placed intrathecally (i.t.) in rats. The rats with good conditions after 3-4 days were selected for the bee venom test. The animals were divided into an intrathecal DMSO group, an intrathecal morphine group and a group of intrathecal compounds of the invention. 5 minutes after administration, each group of rats was […] injected with 50 μl of bee venom at their left hind limbs. Times of feet spontaneous drawing back every 5 minutes in 60 minutes, as well as total times of feet drawing back in an hour were observed and recorded. The response latency to heat stimulus and threshold of mechanical stimulus on both thenars of each group of rats were measured before intrathecal administration and 2 hours after bee venom injection respectively.

[3] = intravenous injection, tested 60 minutes after dosing
[4] = po, intragastrically, acetic acid 60 minutes after dosing, writhing times in 15 minutes
[5] = sc, subcutaneously (S. C), acetic acid 30 minutes after dosing, writhing times in 15 minutes
[6] = intragastrically, tested 60 minutes after dosing
[7] = intragastrically, acetic acid 60 minutes after dosing, writhing times in 15 minutes
[8] = subcutaneously (S. C), acetic acid 30 minutes after dosing, writhing times in 15 minutes

Compound | ED50, analgesic activity in the hot-plate test (KM female mice; [6]) | ED50, analgesic activity in the hot-plate test (KM female mice; [3]) | ED50, analgesic activity in the spared nerve injury (SNI) test (Sprague-Dawley (SD) rats [1]) | ED50, analgesic activity in writhing test (Kunming mice; [7]) | ED50, analgesic activity in writhing test (Kunming mice; [8]) | ED50, analgesic activity in the bee venom test (Sprague-Dawley (SD) rats [2]) | also measured
O=C(CN1CCN(c2ccc(F)cc2)CC1)c1ccccc1 [Example 8] |  |  |  |  |  |  | ED50 (KM female mice; [3]): 40 mg/kg; ED50 (KM female mice; po, intragastrically, tested 60 minutes after dosing): 120 mg/kg; ED50 (Sprague-Dawley (SD) rats [1]): 150 mg/kg; ED50 (Kunming mice; [4]): 120 mg/kg; ED50 (Kunming mice; [5]): 80 mg/kg; ED50 (Sprague-Dawley (SD) rats [2]): 0.12 mg/kg
COc1ccc2nc(N3CCN(CC(=O)c4ccccc4)CC3)sc2c1 [Example 11] | 150 mg/kg | 60 mg/kg | 180 mg/kg | 200 mg/kg | 120 mg/kg | 0.2 mg/kg | 
O=C(CN1CCN(c2nc3ccc(Cl)cc3s2)CC1)c1ccccc1 [Example 14] |  |  | 152 mg/kg | 152 mg/kg | 78 mg/kg |  | 
O=C(CN1CCN(c2ncccn2)CC1)c1ccccc1 [Example 16] |  |  |  |  |  |  | ED50 (Sprague-Dawley (SD) rats [1]): 167 mg/kg; ED50 (Kunming mice; [4]): 132 mg/kg; ED50 (Kunming mice; [5]): 100 mg/kg
Cc1cccc(N2CCN(CC(=O)c3ccccc3)CC2)c1C [Example 10] | 30 mg/kg | 10 mg/kg | 15 mg/kg | 5 mg/kg | 10 mg/kg | 0.03 mg/kg | 
CN1CC[C@]23c4c5ccc(O)c4O[C@H]2[C@@H](O)C=C[C@H]3[C@H]1C5 [Morphine, reference compound] |  |  |  |  |  |  | ED50 (KM female mice; iv): 1 mg/kg; ED50 (KM female mice; po): 2 mg/kg; ED50 (Kunming mice; po): 4 mg/kg; ED50 (Kunming mice; sc): 1 mg/kg; ED50 (Sprague-Dawley (SD) rats [2]): 0.005 mg/kg
O=C(CN1CCN(c2cccc(Cl)c2)CC1)c1ccccc1 [Example 5] | 55 mg/kg | 20 mg/kg | 80 mg/kg | 50 mg/kg | 18 mg/kg | 0.06 mg/kg | 
CC(=O)Oc1ccccc1C(=O)O [Aspirin, reference compound] |  |  |  |  |  |  | ED50 (Kunming mice; [4]): 100 mg/kg; ED50 (Kunming mice; [5]): 80 mg/kg
O=C(CN1CCN(c2cccc(Cl)c2Cl)CC1)c1ccccc1 [Example 7] | 60 mg/kg | 20 mg/kg | 60 mg/kg | 60 mg/kg | 20 mg/kg | 0.08 mg/kg | 
COc1ccc(N2CCN(CC(=O)c3ccccc3)CC2)cc1 [Example 3] | 50 mg/kg | 19 mg/kg | 30 mg/kg | 30 mg/kg | 20 mg/kg |  | 
O=C(CN1CCN(c2cccc(C(F)(F)F)c2)CC1)c1ccccc1 [Example 9] | 20 mg/kg | 5 mg/kg | 10 mg/kg | 3 mg/kg | 2 mg/kg | 0.02 mg/kg | 
NCC1(CC(=O)O)CCCCC1 [Gabapentin, reference compound] |  |  |  |  |  |  | ED50 (Sprague-Dawley (SD) rats [1]): 50 mg/kg
COc1ccccc1N1CCN(CC(=O)c2ccccc2)CC1 [Example 1] | 25 mg/kg | 8 mg/kg | 40 mg/kg | 20 mg/kg | 15 mg/kg |  | 
Cc1ccc2nc(N3CCN(CC(=O)c4ccccc4)CC3)sc2c1 [Example 12] |  |  | 200 mg/kg | 180 mg/kg | 100 mg/kg |  | 
O=C(CN1CCN(c2ccccc2Cl)CC1)c1ccccc1 [Example 4] |  |  | 100 mg/kg | 80 mg/kg | 36 mg/kg |  | 
COc1cccc(N2CCN(CC(=O)c3ccccc3)CC2)c1 [Example 2] |  |  | 15 mg/kg | 5 mg/kg | 2 mg/kg | 0.1 mg/kg | 
